The target in the assay is T1, hTLR9 (Homo sapiens, UniProt Q9NR96).
T1 sequence (Q9NR96 26-1032): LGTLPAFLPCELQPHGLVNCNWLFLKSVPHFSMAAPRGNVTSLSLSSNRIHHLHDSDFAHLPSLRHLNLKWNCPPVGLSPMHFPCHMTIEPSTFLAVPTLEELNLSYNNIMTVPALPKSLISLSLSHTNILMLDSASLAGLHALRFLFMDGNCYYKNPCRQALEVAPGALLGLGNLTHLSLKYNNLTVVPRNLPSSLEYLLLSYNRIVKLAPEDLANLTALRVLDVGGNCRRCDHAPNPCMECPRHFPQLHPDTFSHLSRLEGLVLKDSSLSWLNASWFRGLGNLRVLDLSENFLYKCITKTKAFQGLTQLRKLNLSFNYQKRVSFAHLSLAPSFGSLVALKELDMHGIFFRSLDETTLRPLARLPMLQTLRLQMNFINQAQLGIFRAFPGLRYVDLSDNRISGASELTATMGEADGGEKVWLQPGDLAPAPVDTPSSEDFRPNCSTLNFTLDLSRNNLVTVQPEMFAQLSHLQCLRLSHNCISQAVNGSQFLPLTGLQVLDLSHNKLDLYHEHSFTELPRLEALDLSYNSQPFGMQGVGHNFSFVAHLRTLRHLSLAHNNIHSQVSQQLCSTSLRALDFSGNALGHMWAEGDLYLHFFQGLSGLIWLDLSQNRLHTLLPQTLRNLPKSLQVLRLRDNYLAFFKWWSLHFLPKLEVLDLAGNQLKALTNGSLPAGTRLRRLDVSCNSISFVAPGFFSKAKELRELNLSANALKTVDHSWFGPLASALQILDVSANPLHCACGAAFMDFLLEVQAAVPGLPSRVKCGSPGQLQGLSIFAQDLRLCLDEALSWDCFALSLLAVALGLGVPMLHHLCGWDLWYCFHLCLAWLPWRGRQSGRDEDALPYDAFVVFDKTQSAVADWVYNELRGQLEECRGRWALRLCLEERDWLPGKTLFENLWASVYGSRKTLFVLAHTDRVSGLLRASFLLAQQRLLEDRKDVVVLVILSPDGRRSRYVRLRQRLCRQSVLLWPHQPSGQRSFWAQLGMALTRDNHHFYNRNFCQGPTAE
Kind of assay: HEK293-Blue-hTLR-9 cells assay. As to conditions: HEK293-Blue-hTLR9 cells, ODN2006 stimulation, 20 hrs, SEAP reporter; read-out: HEK/hTLR9 IC50. It is filed as cell-based. From the text:
HEK293-Blue-hTLR-9 cells assay: A stable HEK293-Blue-hTLR-9 cell line was purchased from InvivoGen (Cat. #: hkb-htlr9, San Diego, California, USA). These cells were originally designed for studying the stimulation of human TLR9 by monitoring the activation of NF-κB. A SEAP (secreted embryonic alkaline phosphatase) reporter gene was placed under the control of the IFN-β minimal promoter fused to five NF-κB and AP-1-binding sites. The SEAP was induced by activating NF-κB and AP-1 via stimulating HEK-Blue hTLR9 cells with TLR9 ligands. Therefore the reporter expression was declined by TLR9 antagonist under the stimulation of a ligand, such as ODN2006 (Cat. #: tlrl-2006-1, Invivogen, San Diego, California, USA), for incubation of 20 hrs. The cell culture supernatant SEAP reporter activity was determined using QUANTI-Blue™ kit (Cat. #: rep-qb1, Invivogen, San Diego, California, USA) at a wavelength of 640 nm, a detection medium that turns purple or blue in the presence of alkaline phosphatase.
HEK293-Blue-hTLR9 cells were incubated at a density of 250,000˜450,000 cells/mL in a volume of 170 μL in a 96-well plate in Dulbecco's Modified Eagle's medium (DMEM) containing 4.5 g/L glucose, 50 U/mL penicillin, […], 2 mM L-glutamine, 10% (v/v) heat-inactivated fetal bovine serum with addition of 20 μL test compound in a serial dilution in the presence of final DMSO at 1% and 10 μL of 20 uM ODN2006 in above DMEM, perform incubation under 37° C. in a CO2 incubator for 20 hrs. Then 20 μL of the supernatant from each well was incubated with 180 μL Quanti-blue substrate solution at 37° C. for 2 h and the absorbance was read at 620-655 nm using a spectrophotometer. The signaling pathway that TLR9 activation leads to downstream NF-κB activation has been widely accepted, and therefore similar reporter assay was modified for evaluating TLR9 antagonist.

Turning to `C[C@@H]1CN(c2ccc(C#N)n3ncc(F)c23)C[C@H](CN2CC3(C2)OCc2cc(N4CC5(CNCCO5)C4)ccc23)O1` [Example 4, 3-fluoro-4-[(2R,6S)-2-methyl-6-[[6-(5-oxa-2,8-diazaspiro[3.5]nonan-2-yl)spiro[1H-isobenzofuran-3,3′-azetidine]-1′-yl]methyl]morpholin-4-yl]pyrazolo[1,5-a]pyridine-7-carbonitrile], the IC50 stood at 0.096 µM.

Regarding `C[C@@H]1CN(c2ccc(C#N)n3nccc23)C[C@H](CN2CC3(C2)OCc2cc(N4CC(N)C4)ccc23)O1` [Example 19, 4-[(2S,6R)-2-[[6-(3-aminoazetidin-1-yl)spiro[1H-isobenzofuran-3,3′-azetidine]-1′-yl]methyl]-6-methyl-morpholin-4-yl]pyrazolo[1,5-a]pyridine-7-carbonitrile], the IC50 came out at 0.036 µM.

Turning to `C[C@@H]1CN(c2ccc(C#N)n3nccc23)C[C@H](CN2CC3(C2)OCc2cc(N4CC(C)(N)C4)ncc23)O1` [Example 25, 4-[(2S,6R)-2-[[6-(3-amino-3-methyl-azetidin-1-yl)spiro[1H-furo[3,4-c]pyridine-3,3′-azetidine]-1′-yl]methyl]-6-methyl-morpholin-4-yl]pyrazolo[1,5-a]pyridine-7-carbonitrile], the IC50 was determined as 0.07 µM.

On to `C[C@@H]1CN(c2ccc(C#N)n3ncc(F)c23)C[C@H](CN2CC3(C2)OCc2cc(N4CC(C)(N)C4)ccc23)O1` [Example 1, 4-[(2S,6R)-2-[[6-(3-amino-3-methyl-azetidin-1-yl)spiro[1H-isobenzofuran-3,3′-azetidine]-1′-yl]methyl]-6-methyl-morpholin-4-yl]-3-fluoro-pyrazolo[1,5-a]pyridine-7-carbonitrile], for which the IC50 turned out to be 0.131 µM.

Regarding `C[C@@H]1CN(c2ccc(C#N)n3ncc(F)c23)C[C@H](CN2CC3(C2)OCc2cc(N4CC(N)C4)ccc23)O1` [Example 9, 4-[(2S,6R)-2-[[6-(3-aminoazetidin-1-yl)spiro[1H-isobenzofuran-3,3′-azetidine]-1′-yl]methyl]-6-methyl-morpholin-4-yl]-3-fluoro-pyrazolo[1,5-a]pyridine-7-carbonitrile], the IC50 came out at 0.084 µM.

Regarding `C[C@@H]1CN(c2ccc(C#N)n3nccc23)C[C@H](CN2CC3(C2)OCc2cc(N4CC(C)(N)C4)cnc23)O1` [Example 26, 4-[(2S,6R)-2-[[3-(3-amino-3-methyl-azetidin-1-yl)spiro[5H-furo[3,4-b]pyridine-7,3′-azetidine]-1′-yl]methyl]-6-methyl-morpholin-4-yl]pyrazolo[1,5-a]pyridine-7-carbonitrile], the IC50 is 0.08 µM.

In the case of `[2H]c1ccc2c(N3C[C@H](CN4CC5(C4)OCc4cc(N6CC(N)C6)cnc45)O[C@H](C)C3)ccc(C#N)c2n1` [Example 20, 5-[(2S,6R)-2-[[3-(3-aminoazetidin-1-yl)spiro[5H-furo[3,4-b]pyridine-7,3′-azetidine]-1′-yl]methyl]-6-methyl-morpholin-4-yl]-2-deuterio-quinoline-8-carbonitrile], the IC50 was determined as 0.032 µM.

For `[2H]c1ccc2c(N3C[C@H](CN4CC5(C4)OCc4cc(N6CC(C)(N)C6)cnc45)O[C@H](C)C3)ccc(C#N)c2n1` [Example 21, 5-[(2S,6R)-2-[[3-(3-amino-3-methyl-azetidin-1-yl)spiro[5H-furo[3,4-b]pyridine-7,3′-azetidine]-1′-yl]methyl]-6-methyl-morpholin-4-yl]-2-deuterio-quinoline-8-carbonitrile], the IC50 was found to be 0.055 µM.

As to `[2H]c1ccc2c(N3C[C@H](CN4CC5(C4)OCc4cc(N6CC(N)C6)ncc45)O[C@H](C)C3)ccc(C#N)c2n1` [Example 32, 5-[(2S,6R)-2-[[6-(3-aminoazetidin-1-yl)spiro[1H-furo[3,4-c]pyridine-3,3′-azetidine]-1′-yl]methyl]-6-methyl-morpholin-4-yl]-2-deuterio-quinoline-8-carbonitrile], the IC50 amounted to 0.244 µM.

For `C[C@@H]1CN(c2ccc(C#N)n3ncc(F)c23)C[C@H](CN2CC3(C2)OCc2cc(N4CC(C)(N)C4)ncc23)O1` [Example 24, 4-[(2S,6R)-2-[[6-(3-amino-3-methyl-azetidin-1-yl)spiro[1H-furo[3,4-c]pyridine-3,3′-azetidine]-1′-yl]methyl]-6-methyl-morpholin-4-yl]-3-fluoro-pyrazolo[1,5-a]pyridine-7-carbonitrile], the IC50 was 0.086 µM.

As to `[2H]c1ccc2c(N3C[C@H](CN4CC5(C4)OCc4cc(N6CCNCC6)ccc45)O[C@H](C)C3)ccc(C#N)c2n1` [Example 18, 2-deuterio-5-[(2R,6S)-2-methyl-6-[(6-piperazin-1-ylspiro[1H-isobenzofuran-3,3′-azetidine]-1′-yl)methyl]morpholin-4-yl]quinoline-8-carbonitrile], the IC50 is 0.032 µM.

Take `C[C@@H]1CN(c2ccc(C#N)n3ncc(F)c23)C[C@H](CN2CC3(C2)OCc2cc(N4C[C@H](N)[C@@H](O)C4)ccc23)O1` [Example 10, 4-[(2S,6R)-2-[[6-[(3S,4S)-3-amino-4-hydroxy-pyrrolidin-1-yl]spiro[1H-isobenzofuran-3,3′-azetidine]-1′-yl]methyl]-6-methyl-morpholin-4-yl]-3-fluoro-pyrazolo[1,5-a]pyridine-7-carbonitrile]: the IC50 was 0.061 µM.

On to `[2H]c1ccc2c(N3C[C@H](CN4CC5(C4)OCc4cc(N6C[C@H]7NCCO[C@@H]7C6)ccc45)O[C@H](C)C3)ccc(C#N)c2n1` [Example 17, 5-[(2S,6R)-2-[[6-[(4aR,7aR)-3,4,4a,5,7,7a-hexahydro-2H-pyrrolo[3,4-b][1,4]oxazin-6-yl]spiro[1H-isobenzofuran-3,3′-azetidine]-1′-yl]methyl]-6-methyl-morpholin-4-yl]-2-deuterio-quinoline-8-carbonitrile], for which the IC50 is 0.032 µM.

With `C[C@@H]1CN(c2ccc(C#N)n3ncc(F)c23)C[C@H](CN2CC3(C2)OCc2cc(N4CC5(CN(C)C5)C4)cnc23)O1` [Example 22, 3-fluoro-4-[(2R,6S)-2-methyl-6-[[3-(6-methyl-2,6-diazaspiro[3.3]heptan-2-yl)spiro[5H-furo[3,4-b]pyridine-7,3′-azetidine]-1′-yl]methyl]morpholin-4-yl]pyrazolo[1,5-a]pyridine-7-carbonitrile], the IC50 was 0.057 µM.

On to `C[C@@H]1CN(c2ccc(C#N)n3ncc(F)c23)C[C@H](CN2CC3(C2)OCc2cc(N4CC(C)(N)C4)cnc23)O1` [Example 33, 4-[(2S,6R)-2-[[3-(3-amino-3-methyl-azetidin-1-yl)spiro[5H-furo[3,4-b]pyridine-7,3′-azetidine]-1′-yl]methyl]-6-methyl-morpholin-4-yl]-3-fluoro-pyrazolo[1,5-a]pyridine-7-carbonitrile], for which the IC50 worked out at 0.227 µM.

As for `C[C@@H]1CN(c2ccc(C#N)n3ncc(F)c23)C[C@H](CN2CC3(C2)OCc2cc(N4CC5(CNC5)C4)ccc23)O1` [Example 12, 4-[(2S,6R)-2-[[6-(2,6-diazaspiro[3.3]heptan-2-yl)spiro[1H-isobenzofuran-3,3′-azetidine]-1′-yl]methyl]-6-methyl-morpholin-4-yl]-3-fluoro-pyrazolo[1,5-a]pyridine-7-carbonitrile], the IC50 was 0.103 µM.

For the origin of these results see patent publication US12421252B2, “Spiro (isobenzofuranazetidine) compounds for the treatment of autoimmune disease” (Hoffmann-La Roche Inc., priority 2020, dated 2025).
